The test system of data set [1] is cultured human mast cells (CHMC). Briefly: CHMC low cell density IgE activation: tryptase assay. Conditions: anti-IgE. The data set is classed as cell-based. Summed up: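 Read-out: tryptase released into supernatant, measured by substrate turnover over 30 min at RT. Low-density CHMC (1000-1500 cells/well, per donor degranulation activity) in MT buffer, 1 hr at 37° C, then anti-IgE challenge 30 min at 37° C.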

For data set [2] the test system is unchanged. Briefly: CHMC low cell density ionomycin activation: tryptase assay. It counts as cell-based.
Data set [3] concerns bone marrow derived mast cells (BMMC). Put plainly: BMMC high cell density IgE activation: hexosaminidase. Conditions: anti-IgE, second part of TABLE 1, read-out: BMMC anti-IgE hexos. IC50. It counts as cell-based, mouse. Here is the method:
(§1) After sensitizing, cells are counted, pelleted (1000 rpm, 5-10 minutes), and resuspended at 1-3×10^6 cells/ml in MT buffer. Add 100 ul of cell suspension to each well and 100 ul of compound dilutions. The final vehicle concentration is 0.5% DMSO. Incubate at 37° C. (5% CO2) for 1 hour. After 1 hour of compound treatment, stimulate cells with 6× stimulus (60 ng/ml DNP-BSA). Mix wells with the cells and allow plates to incubate at 37° C. (5% CO2) for one hour. After 1 hour incubation, pellet cells (10 minutes, 1000 RPM) and collect 200 ul per well of the supernatant, being careful not to disturb pellet, and transfer to a clean tube or 96-well plate. Place the supernatant plate on ice. During the 4-5 hour step (see next) perform the hexosiminidase assay. Resuspend cell pellet in 240 ul WEI-conditioned media containing 0.5% DMSO and corresponding concentration of compound. Incubate BMMC cells for 4-5 hours at 37° C. (5% CO2). After incubation, pellet cells (1000 RPM, 10 minutes) and collect 225 ul per well and place in −80° C. until ready to perform ELISAS. ELISAS are performed on appropriately diluted samples (determined empirically for each donor cell population so that the sample measurement falls within the standard curve) following the supplier's instructions.
Hexosaminidase assay: In a solid black 96-well assay plate, add 50 uL hexosaminidase substrate (4-methylumbelliferyl-N-acetyl-(3-D-glucosaminide; 2 mM) to each well. Add 50 uL of BMMC cell supernatant (see above) to the hexoseaminidase substrate, place at 37° C. for 30 minutes and read the plate at 5, 10, 15, and 30 minutes on a spectrophotometer.

The test system is the same in data set [4]. Put plainly: BMMC high cell density IgE activation: histamine. Conditions: anti-IgE, second part of TABLE 1. It counts as cell-based, mouse. Here is the method: (§2) Inhibition of degranulation was measured at both low and high cell density by quantifying the release of the granule specific factors tryptase, histamine and hexosaminidase. Inhibition of release and/or synthesis of lipid mediators was assessed by measuring the release of leukotriene LTC4 and inhibition of release and/or synthesis of cytokines was monitored by quantifying TNF-α, IL-6 and IL-13. Tryptase and hexosaminidase were quantified using fluorogenic substrates as described in their respective examples. […] The protocols of the various assays are provided below.
as §1

For data set [5] the test system is unchanged. Put plainly: BMMC high cell density IgE activation: IL-6. The data set is classed as cell-based, mouse. Conditions: anti-IgE, second part of TABLE 1. On the procedure: as §2, §1
Data set [6] is described as follows: Pharmacokinetics / oral bioavailability in rats. It counts as in vivo. Conditions: rats. On the procedure: Over 50 2,4-pyrimidinediamine compounds of the invention were tested for oral bioavailability. For the study, compounds were dissolved in various vehicles (e.g. PEG 400 solution and CMC suspension) for intravenous and oral dosing in the rats. Following administration of the drug, plasma samples were obtained and extracted. The plasma concentrations of the compounds were determined by high performance liquid chromatography/tandem mass spectrometry (LC/MS/MS) methods. Pharmacokinetic analyses were performed based on the plasma concentration data. The pharmacokinetic parameters of interest include Clearance (CL), Volume of distribution at steady-state (Vss), terminal half-life (t1/2), and oral bioavailability (% F).

Data set [7] in a line: Mouse model of allergic asthma (ovalbumin). As to conditions: mouse, in vivo. It counts as in vivo. The source says: Mice are sensitized to ovalbumin (chicken protein) in the presence of an adjuvant (Alum) by the intraperitoneal route on day 0 and day 7. One week later, mice are challenged intranasally with ovalbumin on Days 14, 15 and 16 (more stringent model) or on Day 14 (less stringent model). This sensitization and challenge regimen leads to airway hyperresponsiveness and inflammation in the lungs, which are two dominant characteristics of human allergic asthma. In the mouse model, the in vivo airway responses are measured using a whole body plethysmograph which determines the PENH (enhanced Pause, Buxco Electronics). The PENH is a dimensionless value comprised of the peak inspiratory flow (PIF), peak expiratory flow (PEF), time of inspiration, time of expiration and relaxation time, and is considered a validated parameter of airway responsiveness. Responses to allergen challenge (OVA) are compared with animals challenged with saline only. Twenty-four hours after challenge, mice are exposed to increasing doses of methacholine (muscarinic receptor agonist) which results in smooth muscle contraction. […] In addition, a cellular infiltrate in the airway is observed in ovalbumin challenged mice when compared with the saline challenged mice. This cellular infiltrate is mainly characterized by eosinophils, but a smaller influx of neutrophils and mononuclear cells is also present.
The use of this model for the evaluation of small molecule inhibitors of mast cell degranulation has been validated is several ways. First, using mast cell deficient mice (W/W^v) it has been shown that the ovalbumin-induced responses are dependent upon the presence of mast cells.

For data set [8], the system named is cultured human mast cells (CHMC). Put plainly: CHMC high cell density IgE activation: hexos (hexosaminidase) release. It counts as cell-based. As to conditions: anti-IgE activation. Here is the method:
as §2
(§3) After sensitizing, cells are counted, pelleted (1000 rpm, 5-10 minutes), and resuspended at 1-2×10^6 cells/ml in MT buffer. Add 100 ul of cell suspension to each well and 100 ul of compound dilutions. The final vehicle concentration is 0.5% DMSO. Incubate at 37° C. (5% CO2) for 1 hour. After 1 hour of compound treatment, stimulate cells with 6× anti-IgE. Mix wells with the cells and allow plates to incubate at 37° C. (5% CO2) for one hour. After 1 hour incubation, pellet cells (10 minutes, 1000 RPM) and collect 200 ul per well of the supernatant, being careful not to disturb pellet. Place the supernatant plate on ice. During the 7-hour step (see next) perform tryptase assay on supernatant that had been diluted 1:500. Resuspend cell pellet in 240 ul of CM media containing 0.5% DMSO and corresponding concentration of compound. Incubate CHMC cells for 7 hours at 37° C. (5% CO2). After incubation, pellet cells (1000 RPM, 10 minutes) and collect 225 ul per well and place in −80° C. until ready to perform ELISAS. ELISAS are performed on appropriately diluted samples (determined empirically for each donor cell population so that the sample measurement falls within the standard curve) following the supplier's instructions.

Data set [9] shares this test system. Briefly: CHMC high cell density IgE activation: tryptase. It counts as cell-based. Conditions: anti-IgE activation. Here is the method:
as §3

Data set [10] has the same test system. Briefly: CHMC high cell density IgE activation: histamine. It counts as cell-based. Conditions: anti-IgE activation. Here is the method: as §2, §3
The test system is the same in data set [11]. Put plainly: CHMC high cell density IgE activation: LTC4. The data set is classed as cell-based. As to conditions: anti-IgE activation. On the procedure: as §2, §3
Data set [12] has the same test system. Briefly: CHMC high cell density IgE activation: IL-13. The data set is classed as cell-based. As to conditions: anti-IgE activation. Here is the method: as §2, §3
The test system of a further data set is Jurkat cells. Put plainly: Jurkat toxicity, Cell Titer Glo assay. It counts as cell-based. Conditions: 18 hours incubation. Here is the method: Seed 50 μl cells (1×10^6/ml) into each well containing 50 μl compound. […] Shake plates for 1 minute to mix cells and compound. Incubate plates at 37° C. […] Next day, harvest 50 μl cells from each well, add to 50 μl Cell Titer Glo reagent ([…]). Shake plates for 1 minute. Read on luminometer.

The subject of data set [13] is cultured human mast cells (CHMC). Put plainly: CHMC low cell density IgE activation: LTC4 assay. The data set is classed as cell-based. As to conditions: anti-IgE. Here is the method:
Pellet CHMC cells (980 rpm, 10 min) and resuspend in pre-warmed MT. Add 65 ul of cells to each 96-well plate. Depending on the degranulation activity for each particular CHMC donor, load 1000-1500 cells/well. Mix four times followed by a 1 hr incubation at 37° C. […] Stimulate cells by adding 25 ul of 6× anti-IgE solution to the appropriate plates. Add 25 ul MT to un-stimulated control wells. Mix twice following addition of the anti-IgE. Incubate at 37° C. for 30 minutes. […] Spin plates at 1000 rpm for 10 min to pellet cells. Transfer 25 ul of supernatant to a 96-well black bottom plate and add 100 ul of freshly diluted tryptase substrate solution to each well. Incubate plates at room temperature for 30 min.
Leukotriene C4 (LTC4) is also quantified using an ELISA kit on appropriately diluted supernatant samples (determined empirically for each donor cell population so that the sample measurement falls within the standard curve) following the supplier's instructions.

The test system is the same in data set [14]. Put plainly: CHMC high cell density IgE activation: TNFalpha. It counts as cell-based. As to conditions: anti-IgE activation; read-out: CHMC high density TNF-alpha. Here is the method: as §2, §3
Data set [15] relates to FcγRI-mediated degranulation. Briefly: FcγRI receptor-mediated degranulation (activation with anti-human IgG Fab fragment). The data set is classed as cell-based. Conditions: cells not primed with IgE, activated with rabbit anti-human IgG Fab fragment.
The test system of data set [16] is bone marrow derived mast cells (BMMC). Put plainly: BMMC high cell density IgE activation: LTC4. It counts as cell-based, mouse. As to conditions: anti-IgE, second part of TABLE 1. Here is the method:
as §2, §1

Data set [17] shares this test system. Put plainly: BMMC high cell density IgE activation: TNFalpha. It counts as cell-based, mouse. As to conditions: anti-IgE, second part of TABLE 1, read-out: BMMC anti-IgE TNF-alpha IC50. Here is the method: as §2, §1

Here are results for 10 compounds from patent publication US9499493B2, “2,4-pyrimidinediamine compounds and their uses” (Rigel Pharmaceuticals, Inc., priority 2002, dated 2016).

For the compound `Cn1ncc2cc(Nc3ncc(F)c(Nc4ccc5c(c4)OCCO5)n3)ccc21` [R935193, N4-(3,4-Ethylenedioxyphenyl)-5-fluoro-N2-(1-methyl-indazoline-5-yl)-2,4-pyrimidinediamine], the IC50 in data set [1] is 136 nM; in data set [2] it was more than 10000 nM; in data set [3] it was 80 nM; in data set [4], 48 nM; in data set [5] it was 37 nM. In addition, the “oral bioavailabilities and half-lives (in words)” value in data set [6] is given as “good”.

`C[C@@H]1C[C@H]2[C@@H]3CCC4=CC(=O)C=C[C@]4(C)[C@@]3(F)[C@@H](O)C[C@]2(C)[C@@]1(O)C(=O)CO` [dexamethasone]: the methacoline-induced bronchocontriction result in data set [7] was “inhibitory effect”.

Regarding `CNCCOc1cccc(Nc2ncc(F)c(Nc3ccc4c(c3)OCCO4)n2)c1` [R926510, N4-(3,4-Ethylenedioxyphenyl)-5-fluoro-N2-[3-[2-(N-methylamino)ethyleneoxy]phenyl]-2,4-pyrimidinediamine], the IC50 in data set [1] was 440 nM; in data set [2], more than 10000 nM; in data set [8], 921 nM; in [9], 1120 nM; in data set [10], 1670 nM; in data set [11], 417 nM. For the same compound, the IC50 in [12] worked out at 686 nM; in the data set with Jurkat cells it was 2770 nM.

Take `O=C(c1cc2cc(Nc3ncc(F)c(Nc4cccc(O)c4)n3)ccc2o1)N1CCOCC1` [R926488, 5-Fluoro-N4-(3-hydroxyphenyl)-N2-[2-(N-morpholino)carbonylbenzofuran-5-yl]-2,4-pyrimidinediamine]: the IC50 in data set [1] is 331 nM; in data set [13] it was 752 nM; in data set [2], more than 10000 nM; in data set [8] it was 521 nM; in data set [9] it was 623 nM; in data set [10] it was 792 nM. In addition, the IC50 in data set [11] was determined as 201 nM; in data set [14], 2440 nM; in data set [12], 1010 nM.

In the case of `CC1(C)Oc2ccc(Nc3ncc(F)c(Nc4ccc5c(c4)NC(=O)C(C)(C)O5)n3)cc2NC1=O` [R940350, N2,N4-[(2,2-Dimethyl-4H-benzo[1,4]oxazin-3-one)-6-yl]-5-fluoro-2,4-pyrimidinediamine], in data set [2], the IC50 turned out to be 4000 nM. Besides, the “FcγRI-mediated degranulation (in words)” value in data set [15] is given as “inhibit FcγRI-mediated degranulation”. In data set [6], the “oral bioavailabilities and half-lives (in words)” value is “good”.

Take `OCCCn1ncc2cc(Nc3ncc(F)c(Nc4ccc(Cl)c(Cl)c4)n3)ccc21` [R935391]: in data set [6], the “oral bioavailabilities and half-lives (in words)” value is “good”.

`Fc1cnc(Nc2ccc3cn[nH]c3c2)nc1Nc1ccc(Cl)c(Cl)c1` [R935372, N4-(3,4-Dichlorophenyl)-5-fluoro-N2-(indazoline-6-yl)-2,4-pyrimidinediamine]: the IC50 in data set [1] was 60 nM; in data set [2] it was more than 10000 nM. Besides, the “FcγRI-mediated degranulation (in words)” value in [15] is “inhibit FcγRI-mediated degranulation”. In addition, the “oral bioavailabilities and half-lives (in words)” value in data set [6] is “good”.

On to `O=C(COc1cccc(Nc2ncc(F)c(Nc3ccc4c(c3)OCCO4)n2)c1)NCCO` [R926505, N4-(3,4-Ethylenedioxyphenyl)-5-fluoro-N2-[3-(2-hydroxyethylamino)carbonylmethyleneoxyphenyl]-2,4-pyrimidinediamine], for which the IC50 in data set [1] was 145 nM; in data set [2], more than 10000 nM; in data set [3], less than 220 nM; in [4], less than 220 nM; in data set [16], less than 220 nM; in data set [17] it was less than 220 nM. Besides, the IC50 in data set [5] was less than 220 nM; in the data set on Jurkat cells it was 4200 nM.

For `COc1cc(Nc2ncc(F)c(Nc3cccc(O)c3)n2)cc(OC)c1` [R926780, N2-(3.5-Dimethoxyphenyl)-5-fluoro-N4-(3-hydroxyphenyl)-2,4-pyrimidinediamine], the IC50 in data set [2] was more than 10000 nM; in [3], less than 220 nM; in data set [4], less than 220 nM; in data set [16] it was 461 nM; in [17], less than 220 nM; in data set [5], less than 220 nM. In the data set with Jurkat cells, the IC50 was more than 5000 nM.

With `COc1cc(Nc2ncc(F)c(Nc3ccc4c(c3)NC(=O)C(C)(C)O4)n2)cc(OC)c1` [R927050], in data set [15], the “FcγRI-mediated degranulation (in words)” value was “inhibit FcγRI-mediated degranulation”. Besides, the “oral bioavailabilities and half-lives (in words)” value in data set [6] is “good”.
